Patent US10752616B2, “Bicycloheteroaryl-heteroaryl-benzoic acid compounds as retinoic acid receptor beta (RARβ) agonists” (King's College London, priority 2014, dated 2020)
Read-outs that look alike come from different tables or passages of the source.

Legend:
RARα [1] = biological target: T1, RARα (Homo sapiens (Human), UniProt P10276); experiment: Binding affinity from Yoshimura et al., 2000, RARα; settings: ratio of relative IC50 (binding), Table 5
Target sequence in this assay (P10276 whole entry, species assumed): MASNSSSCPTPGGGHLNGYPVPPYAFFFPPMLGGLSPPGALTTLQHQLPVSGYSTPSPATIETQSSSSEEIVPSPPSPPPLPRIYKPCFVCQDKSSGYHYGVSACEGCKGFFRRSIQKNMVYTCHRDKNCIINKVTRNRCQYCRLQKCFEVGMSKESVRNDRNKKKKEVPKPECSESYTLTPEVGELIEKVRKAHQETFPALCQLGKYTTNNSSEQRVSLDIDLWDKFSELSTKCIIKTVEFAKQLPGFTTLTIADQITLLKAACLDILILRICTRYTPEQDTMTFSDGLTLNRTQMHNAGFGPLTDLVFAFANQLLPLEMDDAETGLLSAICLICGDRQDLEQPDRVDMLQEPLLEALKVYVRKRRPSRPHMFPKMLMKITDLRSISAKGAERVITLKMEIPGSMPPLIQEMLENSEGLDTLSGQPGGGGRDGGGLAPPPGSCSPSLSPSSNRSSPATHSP

RARα [2] = biological target: T1, RARα; experiment: Subtype-specific transactivation from Yoshimura et al., 2000, RARα; type: cell-based; settings: ratio of relative EC30 (transactivation), Table 6
Target sequence in this assay (P10276 whole entry, species assumed): as above

RARγ [3] = biological target: T2, RARγ (Homo sapiens (Human), UniProt P13631); experiment: Subtype-specific transactivation from Yoshimura et al., 2000, RARγ; type: cell-based; settings: ratio of relative EC30 (transactivation), Table 6
Target sequence in this assay (P13631 whole entry, species assumed): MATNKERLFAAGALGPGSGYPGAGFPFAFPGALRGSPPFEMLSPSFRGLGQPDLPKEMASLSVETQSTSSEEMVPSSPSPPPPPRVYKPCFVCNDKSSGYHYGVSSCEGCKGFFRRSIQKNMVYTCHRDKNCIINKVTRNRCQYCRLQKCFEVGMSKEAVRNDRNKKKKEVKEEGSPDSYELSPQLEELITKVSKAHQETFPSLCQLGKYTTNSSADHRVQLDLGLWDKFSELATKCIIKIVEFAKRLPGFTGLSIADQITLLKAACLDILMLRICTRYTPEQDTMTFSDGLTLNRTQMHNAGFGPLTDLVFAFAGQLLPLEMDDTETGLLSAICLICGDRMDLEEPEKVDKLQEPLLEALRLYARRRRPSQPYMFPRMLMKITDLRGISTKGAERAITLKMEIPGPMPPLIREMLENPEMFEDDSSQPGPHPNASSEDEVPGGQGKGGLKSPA

RARα [4] = biological target: T1, RARα; settings: transactivation, relative to atRA = 1; cited from earlier work
Target sequence in this assay (P10276 whole entry, species assumed): as the sequence (P10276 whole entry, species assumed) above

RARβ [5] = biological target: T3, RARβ (Homo sapiens (Human), UniProt P10826); settings: transactivation, relative to atRA = 1; cited from earlier work
Target sequence in this assay (P10826 whole entry, species assumed): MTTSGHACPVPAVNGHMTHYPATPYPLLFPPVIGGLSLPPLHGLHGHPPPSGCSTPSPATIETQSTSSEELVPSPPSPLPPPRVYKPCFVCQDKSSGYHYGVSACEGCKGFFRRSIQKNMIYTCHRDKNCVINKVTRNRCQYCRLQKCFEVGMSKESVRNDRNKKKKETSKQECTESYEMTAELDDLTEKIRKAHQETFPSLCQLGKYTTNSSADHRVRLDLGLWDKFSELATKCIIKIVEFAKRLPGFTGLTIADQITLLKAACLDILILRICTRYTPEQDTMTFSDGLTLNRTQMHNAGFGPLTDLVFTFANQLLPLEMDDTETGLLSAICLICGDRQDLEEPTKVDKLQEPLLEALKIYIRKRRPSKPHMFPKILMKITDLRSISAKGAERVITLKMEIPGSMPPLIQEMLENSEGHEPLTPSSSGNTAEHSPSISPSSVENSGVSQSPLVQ

RARγ [6] = biological target: T2, RARγ; settings: transactivation, relative to atRA = 1; cited from earlier work
Target sequence in this assay (P13631 whole entry, species assumed): as the sequence (P13631 whole entry, species assumed) above

RARβ [7] = biological target: T4, RARβ (Mus musculus (Mouse), UniProt P22605); experiment: Transactivation assay for RARβ (gal4-RAR fusion, pFR-luc reporter, COS-7 cells), Table 2; type: cell-based; settings: COS-7 reporter, mean of three or more determinations, species not stated (method: mouse or human)
T4 sequence (P22605 210-444): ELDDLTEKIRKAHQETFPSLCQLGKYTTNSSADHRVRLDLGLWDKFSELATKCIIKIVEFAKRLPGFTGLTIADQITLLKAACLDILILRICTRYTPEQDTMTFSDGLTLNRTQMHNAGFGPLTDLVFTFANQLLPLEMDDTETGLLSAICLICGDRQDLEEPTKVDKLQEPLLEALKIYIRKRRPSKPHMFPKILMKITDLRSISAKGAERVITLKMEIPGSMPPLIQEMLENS
In short: (§1)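 COS-7 cells co-transfected with gal4-RAR ligand-binding-domain fusion (mouse or human) plus pFR-luc reporter, compound added next day in phenol-red-free DMEM with 1% DMSO; luciferase read after a further day. EC50 given as mean of three or more determinations.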

RARα [8] = biological target: T5, RARα (Mus musculus (Mouse), UniProt P11416); experiment: Transactivation assay for RARα (gal4-RAR fusion, pFR-luc reporter, COS-7 cells), Table 2; type: cell-based; settings: for EC50: Table 2, COS-7 reporter, mean of three or more determinations, inactive = no agonist action at highest concentration tested
T5 sequence (P11416 183-417): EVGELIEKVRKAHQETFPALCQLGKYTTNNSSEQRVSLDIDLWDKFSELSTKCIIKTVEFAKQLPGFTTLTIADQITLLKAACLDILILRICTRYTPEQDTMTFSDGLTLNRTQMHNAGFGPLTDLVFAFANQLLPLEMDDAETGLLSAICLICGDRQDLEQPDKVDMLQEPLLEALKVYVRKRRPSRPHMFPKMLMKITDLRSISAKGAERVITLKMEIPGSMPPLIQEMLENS
In short: as §1

RARγ [9] = biological target: T6, RARγ (Mus musculus (Mouse), UniProt P18911); experiment: Transactivation assay for RARγ (gal4-RAR fusion, pFR-luc reporter, COS-7 cells), Table 2; type: cell-based; settings: for EC50: Table 2, COS-7 reporter, mean of three or more determinations, inactive = no agonist action at highest concentration tested
T6 sequence (P18911 185-419): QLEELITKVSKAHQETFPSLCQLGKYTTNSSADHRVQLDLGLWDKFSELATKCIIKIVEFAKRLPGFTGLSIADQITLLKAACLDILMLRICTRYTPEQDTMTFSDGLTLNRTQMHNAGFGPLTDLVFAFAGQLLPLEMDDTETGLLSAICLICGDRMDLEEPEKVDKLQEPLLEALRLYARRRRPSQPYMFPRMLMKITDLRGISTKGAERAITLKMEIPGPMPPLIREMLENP
In short: as §1

RARβ [10] = biological target: T4, RARβ; experiment: Transactivation assay, mouse RARβ; type: cell-based; settings: Table 3, read-out: RARβ potency - EC50
Method: (§2) Transcriptional transactivation assays were performed with gal4 fusion receptor constructs, created using each of the RAR ligand binding domains of either mouse or human, co-transfected with the pFR-luc (Stratagene) reporter construct in COS-7 cells.
(§3) Briefly, on day 1, 96 well plates were seeded with 8000 cells per well then left to recover overnight. On day 2, the cells were co-transfected with 100 ng of reporter plasmid and 10 ng of the appropriate receptor plasmid per well using lipofectamine (Invitrogen). On day 3, the lipofectamine containing media was replaced by a DMEM without phenol red, followed by the addition of test compound dissolved in 1 μL of DMSO to each well's 100 μL total volume. Finally, on day 4, the cells were lysed and their luciferase substrate was provided by the BrightGlo™ reagent (Promega), the plates were then read on the MicroBeta TriLux™ (Perkin Elmer).
(§4) Data for test compounds are quoted as EC50 values. Where replicate data has been generated, the data are quoted as the mean EC50 from the separate experiments.

RARα [11] = biological target: T5, RARα; experiment: Transactivation assay, mouse RARα; type: cell-based; settings: Table 3
Method: as §2, §3, §4

RARγ [12] = biological target: T6, RARγ; experiment: Transactivation assay, mouse RARγ; type: cell-based; settings: Table 3
Method: as §2, §3, §4

RARβ [13] = biological target: T3, RARβ; experiment: Transactivation assay, human RARβ; type: cell-based
Method: as §2, §3, §4
Target sequence in this assay (P10826 183-417): as the sequence (P22605 210-444) above

RARα [14] = biological target: T1, RARα; experiment: Transactivation assay, human RARα; type: cell-based
Method: as §2, §3, §4
Target sequence in this assay (P10276 183-417): as the sequence (P11416 183-417) above, with K165R counted along it

RARγ [15] = biological target: T2, RARγ; experiment: Transactivation assay, human RARγ; type: cell-based
Method: as §2, §3, §4
Target sequence in this assay (P13631 185-419): as the sequence (P18911 185-419) above

[16] = tested on: rats with severed sensory roots; experiment: Severed and re-implanted sensory roots (DRG, left forelimb) in rats; sticky tape tests; type: in vivo; settings: rat, 1 mg/kg two days after lesion, then three times a week
Method: In another example of nerve injury, the four sensory roots from each of four DRG at the level of the left forelimb were severed and re-implanted into the spinal cord.
FIGS. 2A and 2B show two graphs of the time taken for rats to sense sticky tape (FIG. 2A) and to remove sticky tape (FIG. 2B) that is placed on its injured forepaw, as a function of the number of weeks after injury. Rats were treated with 1 mg/kg of the test compound or vehicle two days after lesion, and then three times a week for the period of the experiment. Error bars show SEM. ***P<0.001, students t test, n=3-4 rats for each treatment group. At weeks 3, 4, and 5, there was significant difference between the rats treated with RARβ agonist as compared to rats treated with other retinoid agonists and vehicle.

[17] = tested on: rats with crushed corticospinal tract (CST); experiment: Corticospinal tract (CST) crush at C4 in rats, i.c.v. treatment; tracing and behavioural tests; type: in vivo; settings: rat
Method: FIGS. 1A and 1B show two graphs of the number of rat footslips as a function of the number of weeks after lesion, for grid task (FIG. 1A) and beam task (FIG. 1B).
All animal experiments were carried out under UK home office regulations. Dorsal column lesions were performed on adult male rats as previously described (see, e.g., Bradbury et al., 2002). […] The pumps were placed subcutaneously and connected to a brain infusion catheter (Alzet™), which was inserted into the lateral ventricle (Bregma coordinates: rostrocaudal: −0.8 mm, mediolateral: −1.5 mm and dorsoventral: −4.5 mm). […] The dose was based previous in vivo studies on activation of RARα and RARβ signalling in the adult rat brain (see, e.g., Goncalves et al., 2009). Animals which underwent behavioural studies and subsequent tracing (n=6 per treatment) were kept for six weeks before being sacrificed with a lethal injection of pentobarbital and transcardially perfused with 4% PFA. Dissected tissue (cervical and lumbar spinal cord) was processed for immunofluoresence.
Descendent corticospinal tract axons were anterogradely traced after the dorsal column crush was performed by injected BDA (10% in PBS, Mw10K from Molecular Probes) into the motor cortex as previously described (see, e.g., Yip et al., 2006). Six injections were done in the right cortex (0.5 μL of BDA/injection point). Animals (n=6 per treatment) were perfused and the spinal cord was transferred to PBS (plus 0.1% sodium azide) and embedded in gelatin (10%, 300 bloom; Sigma, Poole, UK). Gelatin blocks were hardened in 4% paraformaldehyde, and 40 μm free-floating serial transverse sections were cut on a vibratome (Leica, Nussloch, Germany) and collected in 24-well plates containing PBS (plus 0.1% sodium azide).
BDA was detected using the tyramide amplification kit (Perkin-Elmer) coupled with extra-avidin-FITC (Amersham Pharmacia Biotech, UK, 1:500). All BDA-labelled fibres observed within a 1-mm square grid were counted at measured intervals from 5 mm above to 5 mm below the lesion site by an experimenter, blinded to treatment.
CST neurons were labelled by retrograde tracing injecting 2 μL of 5% Fluorogold (FG, Molecular Probes) 2 mm deep into the cervical spinal cord (C3-C4) at a rate of 0.5 μL/minute (n=3 rats per group). In sham animals, FG was injected 0.5 mm bilateral to the medial line of spinal cord (1 μL per side), and in lesioned animals FG (2 μL) was injected into the injury. After 14 days, the cortices were fixed for 2 hours in 4% paraformaldehyde (PFA), embedded in OCT compound and stored frozen. Sagittal sections (12 μm) were cut and 4 sequential slides containing 2 sections from lateral 3.4-3.9 mm were taken for analysis (see, e.g., Paxinos and Watson, 2002).
Immunohistochemistry was carried out using anti-rabbit phospho-Akt (Cell Signalling technology, dilution of 1:100). Secondary antibody used was anti-rabbit Cy3 conjugated (Jackson, used at 1:1000). Images were captured at 100× magnification using a Roperscientific digital camera.
The behavioural tests were carried out as previously described (see, e.g., Bradbury et al., 2002). Rats (n=6 per treatment group) were first trained for two weeks before surgery to perform grid walk and beam walk; they were then tested by an observer blinded to the experimental treatment once a week for five weeks after lesion.

cerebellar neurons = experiment: Neurite outgrowth assay, cerebellar neurons in the presence of myelin/MAG; type: cell-based, rat
Method: (§5) Cerebellar neurons isolated from post-natal day 3 rat pups were cultured over monolayers of parental 3T3 cells in control media, or media supplemented with a recombinant MAG-Fc chimera (R&D Systems) used at a final concentration of 20 μg/mL MAG-Fc. The monolayers were established for 24 hours prior to addition of the neurons and the co-cultures were maintained for approximately 21 hours. Following careful fixation with 4% paraformaldehyde, the neurons were immuno-stained with a GAP-43 antibody (from Graham Wilkin, Imperial College), dilution of 1:500, and the mean length of the longest neurite per cell was measured for approximately 120-150 neurons as previously described (see, e.g., Williams et al., 2005). DRG and cortical explants were obtained from adult rats, they were cultured in cellogen as previously described (see, e.g., Corcoran and Maden, 1999). Three explants per treatment were used. Neurite outgrowth was assessed 3 days later by immunohistochemistry with NF200 (Sigma, dilution of 1:200). The average lengths of the neurites were measured using image pro plus software. Media consisted of DMEM-F12 (Invitrogen) containing N2 (Invitrogen) supplemented with glucose (33 mM) and glutamine (2 mM).

phospho-Akt = experiment: Western blot of cerebellar cultures for phospho-Akt; type: cell-based, rat; settings: cerebellar cultures treated with 1 μM
cortex explants = experiment: Neurite outgrowth from cultured cortex of treated lesioned animals; type: cell-based, rat; settings: cortex from lesioned rats treated in vivo
Method: When pieces of cortex from these RARβ agonist treated animals were cultured, neurite outgrowth was observed, in contrast to cortex from control lesioned animals.
as §5

RARα [18] = biological target: T1, RARα; settings: Bernard et al., 1992; Delescluse et al., 1991; cited from earlier work
Target sequence in this assay (P10276 whole entry, species assumed): as the sequence (P10276 whole entry, species assumed) above

RARγ [19] = biological target: T2, RARγ; settings: Bernard et al., 1992; Delescluse et al., 1991; cited from earlier work
Target sequence in this assay (P13631 whole entry, species assumed): as the sequence (P13631 whole entry, species assumed) above

[20] = Table 3, Human, read-out: RARβ potency - EC50
[21] = i.c.v. 180 ng/kg/day for 14 days

`O=C(O)c1ccc(-c2ccc(-c3cc4c(C(F)(F)F)ccc(F)c4o3)[nH]2)cc1` [1f] showed an RARα/RARβ ratio (RARα [1]) of 0.0038, an RARα/RARβ ratio (RARα [2]) of 0.034 and an RARγ/RARβ ratio (RARγ [3]) of 12.9. The “RARα relative EC30” value (RARα [4]) was 0.29 ± 0.04, the “RARβ relative EC30” value (RARβ [5]) was 8.5 ± 0.4 and the “RARγ relative EC30” value (RARγ [6]) was 110 ± 20.
`Cc1ccc(C)c2oc(-c3nc(-c4ccc(C(=O)O)cc4)no3)cc12` [BHBA-001, 4-(5-(4,7-Dimethylbenzofuran-2-yl)-1,2,4-oxadiazol-3-yl)benzoic acid] gave an EC50 (RARβ [7]) of 1.94 nM, an EC50 (RARα [8]) of 26 nM and an EC50 (RARγ [9]) of 11 nM. The EC50 (RARβ [10]) was 1.94 nM, the “Selectivity over RARα” value (RARα [11]) was 14-fold and the “Selectivity over RARγ” value (RARγ [12]) was 6-fold. The EC50 (RARβ [13]; [20]) was 2.05 nM, the “Selectivity over RARα” value (RARα [14]; Table 3, Human) was 23-fold and the “Selectivity over RARγ” value (RARγ [15]; Table 3, Human) was 5-fold. The “Behavioural tests after 5 weeks (severed sensory roots)” value [16] was “performed as well as non-lesioned animals”.
Work on `Cc1ccc(C)c2oc(-c3nc(-c4ccc(C(=O)O)cc4Cl)no3)cc12` [BHBA-002, 3-Chloro-4-(5-(4,7-dimethylbenzofuran-2-yl)-1,2,4-oxadiazol-3-yl)benzoic acid] yielded an EC50 (RARβ [7]) of 11.4 nM, an EC50 (RARα [8]) of 136 nM and an RARα/RARβ ratio (RARα [8]; fold-selectivity for RARβ over RARα, >1 = selective for RARβ) of 12. It also gave an EC50 (RARγ [9]) of 29 nM, an RARγ/RARβ ratio (RARγ [9]; fold-selectivity for RARβ over RARγ, >1 = selective for RARβ) of 2.5 and an EC50 (RARβ [10]) of 11.5 nM. The “Selectivity over RARα” value (RARα [11]) was 12-fold, the “Selectivity over RARγ” value (RARγ [12]) was 3-fold and the EC50 (RARβ [13]; [20]) was 21.4 nM. The “Selectivity over RARα” value (RARα [14]; Table 3, Human) was 12-fold and the “Selectivity over RARγ” value (RARγ [15]; Table 3, Human) was 2-fold.
For `COc1ccc(-c2ccc3cc(C(=O)O)ccc3c2)cc1C1(C)CCCCC1` [CD2019, 6-(4-methoxy-3-(1-methylcyclohexyl)phenyl)-2-naphthalenecarboxylic acid], the EC50 (RARβ [13]; Table 1, all human data, read-out: RARβ potency EC50) was 0.83 nM, the “Selectivity over RARα” value (RARα [14]; Table 1, all human data) was 11-fold and the “Selectivity over RARγ” value (RARγ [15]; Table 1, all human data) was 1.9-fold. For the same compound, the “Phospho AKT in the injured CST neurons in vivo” value [17] was “induced”, the “BDA labelled CST axons crossing the lesion site” value ([17]; after 5 weeks) was “many axons were observed crossing the injury site” and the “RARβ2 expression in CST neuronal cell bodies” value ([17]; applied to the lateral ventricle for 2 weeks) was “upregulation of RARβ 2”. The “Behavioural tests after 5 weeks (CST lesion)” value ([17]; grid walk and beam walk) was “performed as well as non-lesioned animals”, the “Functional recovery of the forelimb in beam task (footslips), time of recovery” value [17, 21] was 2 weeks post lesion and the “Functional recovery of the forelimb in grid task (footslips), time of recovery” value [17, 21] was 4 weeks post lesion. For the same compound, the “Behavioural tests after 5 weeks (severed sensory roots)” value [16] was “performed as well as non-lesioned animals”, the “Neurite outgrowth of cerebellar neurons grown in the presence of myelin” value (cerebellar neurons) was “causes the outgrowth of neurites” and the “Increase in neuronal phospho-Akt (not total Akt) compared to control cultures” value (phospho-Akt) was 4 fold. The “Axon/neurite outgrowth from cultured adult cortex of treated animals” value (cortex explants) was “did grow”, the “Selectivity RARβ over RARα” value (RARα [18]) was 5 fold and the “Selectivity RARβ over RARγ” value (RARγ [19]) was 12 fold.
